From US10517867B2, “Posaconazole derivative, pharmaceutical composition and use thereof” (priority 2016, dated 2019)

What was measured:
[1] = In vitro metabolic stability in human plasma; format: in vitro ADME; settings: human, plasma, 37° C., 10 μM compound, read-out: Human plasma T1/2
Method: (§1) This example detects the metabolic stability of the compounds of the present disclosure in human (rat) plasma and intestinal S9 in vitro. In a human (rat) plasma reaction system, 990 μl of human (rat) plasma was taken and incubated at 37° C. for 5 minutes, and 10 μl of the compound mother liquor was used to initiate the reaction. In the human (rat) intestinal S9 stability experiment, in the order shown in Table 2 below, the samples were added and incubated in a 37° C. water bath to initiate the reaction, each sample performed in triplicates. Respectively, at 1 minute, 2 minutes, 5 minutes, 15 minutes, 30 minutes after the reaction began, 100 μL of each was taken and added to a centrifuge tube containing 400 μL of 0° C. precooled internal standard working solution. The reaction was terminated, vortexed and mixed for 1 minute, centrifuged at 10000×g for 10 minutes in a 4° C. precooled high-speed centrifuge, and the supernatant was detected with HPLC. The test results were used to calculate metabolic half-life using WinNonlin (version 6.2 Pharsight, Mountain View, Calif.) with a non-compartmental model.
(§2) Compound stock solution concentration: 1 mM
(§3) Reaction matrix: human (rat) plasma, intestinal S9 purchased from Research Institute for Liver Diseases (Shanghai) Co., Ltd.

[2] = In vitro metabolic stability in human intestine S9; format: in vitro ADME; settings: human, 37° C., 10 μM compound, 1 mg/mL S9, NADPH regeneration system, read-out: Human intestine S9 T1/2
Method: as §1, §2, §3

[3] = In vitro metabolic stability in rat plasma; format: in vitro ADME; settings: rat, plasma, 37° C., 10 μM compound, read-out: Rat plasma T1/2
Method: as §1, §2, §3

[4] = In vitro metabolic stability in rat intestine S9; format: in vitro ADME; settings: rat, 37° C., 10 μM compound, 1 mg/mL S9, NADPH regeneration system, read-out: Rat intestine S9 T1/2
Method: as §1, §2, §3

[5] = system: Candida albicans ATCC10231; assay: Systemic fungal infection in mice, intravenous administration; format: in vivo, ICR mice
Method: (§4) ICR mice, weighing 18-22 g, male, provided by Hubei Experimental Animal Center.
(§5) Prior to the experiment, a small amount of Candida albicans was picked from an SDA (sacharomyces agar, the same below) medium kept at 4° C. with an inoculation loop and inoculated into 1 ml YPD (Yeast Extract Peptone Dextrose Medium) culture medium, cultured at 30° C. with 200 rpm shaking and activated for 16 hours, so that the fungus was in the late stage of exponential growth. Counted with a hemocytometer and the fungal solution concentration was adjusted to 1×10^3-5×10^3 CFU/ml with RPMI1640 medium (Roswell Park Memorial Institute 1640, the same below). Monoclonal Candida albicans on SDA plate was picked up, inoculated into 1 ml YPD (Yeast Extract Peptone Dextrose Medium, the same below) culture medium, cultured at 35° C., 200 rpm for 16 hours until late exponential growth phase. Candida albicans was inoculated into fresh medium for culturing for 6 hours at 1%, centrifuged at 1000×g for 5 minutes, washed with physiological saline three times until the supernatant was colorless, counted with a hemocytometer, and the cell concentration was adjusted to 5×10^6 cells/ml. A tail vein injection of 0.1 ml/10 g caused a systemic fungal infection in mice. […] A total of 7 days of observations were performed. All dead mice were burned with ethanol.

[6] = system: Candida albicans ATCC10231; assay: Systemic fungal infection in mice, intragastric administration; format: in vivo, ICR mice; settings: Candida albicans, ATCC10231, po
Method: as §4
as §5, with “SDA” for “SDA (sacharomyces agar, the same below)”, “YPD” for “YPD (Yeast Extract Peptone Dextrose Medium)”, “1×10^3 to 5×10^3” for “1×10^3-5×10^3”, “medium.” for “medium (Roswell Park Memorial Institute 1640, the same below).”

[7] = Determination of solubility in deionized water (HPLC, external standard); settings: 25 °C, water, thermodynamic from solid
[8] = 24 h, read-out: survival rate of mice, day 1
[9] = 48 h, read-out: survival rate of mice, day 2
[10] = 72 h, read-out: survival rate of mice, day 3
[11] = 96 h, read-out: survival rate of mice, day 4
[12] = 120 h, read-out: survival rate of mice, day 5
[13] = 144 h, read-out: survival rate of mice, day 6
[14] = 168 h, read-out: survival rate of mice, day 7
[15] = 24 h, read-out: survival rate of mice, day 1, 20 mg/kg intragastric once daily for 5 days, day 1
[16] = 48 h, read-out: survival rate of mice, day 2, 20 mg/kg intragastric once daily for 5 days, day 2
[17] = 72 h, read-out: survival rate of mice, day 3, 20 mg/kg intragastric once daily for 5 days, day 3
[18] = 96 h, read-out: survival rate of mice, day 4, 20 mg/kg intragastric once daily for 5 days, day 4
[19] = 120 h, read-out: survival rate of mice, day 5, 20 mg/kg intragastric once daily for 5 days, day 5
[20] = 144 h, read-out: survival rate of mice, day 6, 20 mg/kg intragastric once daily for 5 days, day 6
[21] = 168 h, read-out: survival rate of mice, day 7, 20 mg/kg intragastric once daily for 5 days, day 7
[22] = 24 h, 20 mg/kg intragastric once daily for 5 days, day 1, read-out: survival rate of mice, day 1
[23] = 48 h, 20 mg/kg intragastric once daily for 5 days, day 2, read-out: survival rate of mice, day 2
[24] = 72 h, 20 mg/kg intragastric once daily for 5 days, day 3, read-out: survival rate of mice, day 3
[25] = 96 h, 20 mg/kg intragastric once daily for 5 days, day 4, read-out: survival rate of mice, day 4
[26] = 120 h, 20 mg/kg intragastric once daily for 5 days, day 5, read-out: survival rate of mice, day 5
[27] = 144 h, 20 mg/kg intragastric once daily for 5 days, day 6, read-out: survival rate of mice, day 6
[28] = 168 h, 20 mg/kg intragastric once daily for 5 days, day 7, read-out: survival rate of mice, day 7

CC[C@@H]([C@H](C)O)n1ncn(-c2ccc(N3CCN(c4ccc(OC[C@@H]5CO[C@@](Cn6c[n+](C(C)OC(=O)OCC[C@@H](N)C(=O)O)cn6)(c6ccc(F)cc6F)C5)cc4)CC3)cc2)c1=O.Cl.[Cl-] (stereo partly drawn) [ST0018] gave a half-life at 10 µM [1] of 18.6 ± 5.63 min, a half-life at 10 µM ([2]; intestinal S9) of 50.1 ± 5.98 min and a half-life at 10 µM [3] of 11.5 ± 1.23 min. For the same compound, the half-life at 10 µM ([4]; intestinal S9, pH 7.4) was 45.2 ± 6.95 min.

Work on CC[C@@H]([C@H](C)OC(=O)OC(C)OC(=O)CCCCCOP(=O)([O-])[O-])n1ncn(-c2ccc(N3CCN(c4ccc(OC[C@@H]5CO[C@@](Cn6cncn6)(c6ccc(F)cc6F)C5)cc4)CC3)cc2)c1=O.[Na+].[Na+] (stereo partly drawn) [ST0063] yielded a half-life at 10 µM [1] of 0.85 ± 0.45 min, a half-life at 10 µM [2] of 16.3 ± 2.12 min and a half-life at 10 µM [3] of 1.21 ± 0.75 min. The half-life at 10 µM ([4]; pH 7.4) was 19.4 ± 5.69 min, the responders at 20 mg/kg [5, 8] was 100% and the responders at 20 mg/kg [5, 9] was 100%. For the same compound, the responders at 20 mg/kg [5, 10] was 90%, the responders at 20 mg/kg [5, 11] was 90% and the responders at 20 mg/kg [5, 12] was 90%. For the same compound, the responders at 20 mg/kg [5, 13] was 90%, the responders at 20 mg/kg [5, 14] was 90% and the responders at 20 mg/kg [6, 15] was 90%. The responders at 20 mg/kg [6, 16] was 90%, the responders at 20 mg/kg [6, 17] was 80% and the responders at 20 mg/kg [6, 18] was 80%. For the same compound, the responders at 20 mg/kg [6, 19] was 80%, the responders at 20 mg/kg [6, 20] was 80% and the responders at 20 mg/kg [6, 21] was 80%. It also gave a solubility at 30 min [7] of over 50 mg/mL.

In the case of CC[C@@H](C(C)OC(=O)OC(C)OC(=O)CCCCCCOP(=O)([O-])[O-])n1ncn(-c2ccc(N3CCN(c4ccc(OC[C@@H]5CO[C@@](Cn6cncn6)(c6ccc(F)cc6F)C5)cc4)CC3)cc2)c1=O.[Na+].[Na+] (stereo partly drawn) [ST0070], the half-life at 10 µM [1] is reported as 0.95 ± 0.31 min, the half-life at 10 µM [2] is reported as 20.2 ± 8.02 min and the half-life at 10 µM [3] is reported as 1.12 ± 0.56 min. For the same compound, the half-life at 10 µM ([4]; pH 7.4) was 17.6 ± 5.85 min, the responders at 20 mg/kg [5, 8] was 100% and the responders at 20 mg/kg [5, 9] was 90%. It also gave a responders at 20 mg/kg [5, 10] of 90%, a responders at 20 mg/kg [5, 11] of 90% and a responders at 20 mg/kg [5, 12] of 90%. For the same compound, the responders at 20 mg/kg [5, 13] was 90%, the responders at 20 mg/kg [5, 14] was 90% and the responders at 20 mg/kg [6, 15] was 100%. For the same compound, the responders at 20 mg/kg [6, 16] was 90%, the responders at 20 mg/kg [6, 17] was 90% and the responders at 20 mg/kg [6, 18] was 90%. The responders at 20 mg/kg [6, 19] was 80%, the responders at 20 mg/kg [6, 20] was 70% and the responders at 20 mg/kg [6, 21] was 70%. For the same compound, the solubility at 30 min [7] was over 50 mg/mL.

Compound CC[C@@H](C(C)OC(=O)OC(C)OC(=O)CCCCCCCCCOP(=O)([O-])[O-])n1ncn(-c2ccc(N3CCN(c4ccc(OC[C@@H]5CO[C@@](Cn6cncn6)(c6ccc(F)cc6F)C5)cc4)CC3)cc2)c1=O.[Na+].[Na+] (stereo partly drawn) [ST0072] has a half-life at 10 µM [1] of 18.3 ± 1.97 min, a half-life at 10 µM ([2]; intestinal S9) of 46.8 ± 12.8 min and a half-life at 10 µM [3] of 25.6 ± 13 min. It also gave a half-life at 10 µM ([4]; intestinal S9, pH 7.4) of 39.9 ± 10.8 min.

CC[C@@H](C(C)OC(=O)OC(C)OC(=O)CCCCOS(=O)(=O)[O-])n1ncn(-c2ccc(N3CCN(c4ccc(OC[C@@H]5CO[C@@](Cn6cncn6)(c6ccc(F)cc6F)C5)cc4)CC3)cc2)c1=O.[Na+] (stereo partly drawn) [ST0078] gave a half-life at 10 µM [1] of 2.22 ± 0.58 min, a half-life at 10 µM [2] of 24.2 ± 8.75 min and a half-life at 10 µM [3] of 2.57 ± 0.74 min. The half-life at 10 µM ([4]; pH 7.4) was 28.2 ± 5.65 min, the responders at 20 mg/kg [6, 22] was 90% and the responders at 20 mg/kg [6, 23] was 90%. The responders at 20 mg/kg [6, 24] was 80%, the responders at 20 mg/kg [6, 25] was 70% and the responders at 20 mg/kg [6, 26] was 70%. It also gave a responders at 20 mg/kg [6, 27] of 70%, a responders at 20 mg/kg [6, 28] of 70% and a solubility at 30 min [7] of over 50 mg/mL.

For CC[C@@H](C(C)OC(=O)OC(C)OC(=O)CCCCCOS(=O)(=O)[O-])n1ncn(-c2ccc(N3CCN(c4ccc(OC[C@@H]5CO[C@@](Cn6cncn6)(c6ccc(F)cc6F)C5)cc4)CC3)cc2)c1=O.[Na+] (stereo partly drawn) [ST0079], the half-life at 10 µM [1] was 2.56 ± 0.42 min, the half-life at 10 µM [2] was 28.7 ± 8.9 min and the half-life at 10 µM [3] was 2.06 ± 0.77 min. It also gave a half-life at 10 µM ([4]; pH 7.4) of 27.9 ± 11.2 min, a responders at 20 mg/kg [6, 22] of 90% and a responders at 20 mg/kg [6, 23] of 90%. For the same compound, the responders at 20 mg/kg [6, 24] was 90%, the responders at 20 mg/kg [6, 25] was 80% and the responders at 20 mg/kg [6, 26] was 80%. For the same compound, the responders at 20 mg/kg [6, 27] was 70%, the responders at 20 mg/kg [6, 28] was 70% and the solubility at 30 min [7] was over 50 mg/mL.

Compound CC[C@@H]([C@H](C)OC(=O)OC(C)OC(=O)Cc1ccc(OS(=O)(=O)[O-])cc1)n1ncn(-c2ccc(N3CCN(c4ccc(OC[C@@H]5CO[C@@](Cn6cncn6)(c6ccc(F)cc6F)C5)cc4)CC3)cc2)c1=O.[Na+] (stereo partly drawn) [ST0080] has a half-life at 10 µM [1] of 12.8 ± 3.57 min, a half-life at 10 µM [2] of 40.3 ± 12.7 min and a half-life at 10 µM [3] of 13.3 ± 4.78 min. The half-life at 10 µM ([4]; pH 7.4) was 45.4 ± 11.3 min, the responders at 20 mg/kg [6, 22] was 90% and the responders at 20 mg/kg [6, 23] was 90%. It also gave a responders at 20 mg/kg [6, 24] of 90%, a responders at 20 mg/kg [6, 25] of 80% and a responders at 20 mg/kg [6, 26] of 70%. For the same compound, the responders at 20 mg/kg [6, 27] was 70% and the responders at 20 mg/kg [6, 28] was 60%.

Work on CC[C@@H]([C@H](C)OC(=O)OC(C)OC(=O)CCCCCCCOS(=O)(=O)[O-])n1ncn(-c2ccc(N3CCN(c4ccc(OC[C@@H]5CO[C@@](Cn6cncn6)(c6ccc(F)cc6F)C5)cc4)CC3)cc2)c1=O.[Na+] (stereo partly drawn) [ST0082] yielded a half-life at 10 µM [1] of 8.99 ± 2.52 min, a half-life at 10 µM [2] of 42.1 ± 13.7 min and a half-life at 10 µM [3] of 9.36 ± 1.56 min. The half-life at 10 µM ([4]; pH 7.4) was 52.6 ± 8.69 min, the responders at 20 mg/kg [6, 22] was 90% and the responders at 20 mg/kg [6, 23] was 70%. It also gave a responders at 20 mg/kg [6, 24] of 70%, a responders at 20 mg/kg [6, 25] of 70% and a responders at 20 mg/kg [6, 26] of 70%. The responders at 20 mg/kg [6, 27] was 70%, the responders at 20 mg/kg [6, 28] was 60% and the solubility at 30 min [7] was over 50 mg/mL.
